Like-named read-outs stand apart in the source and are kept apart here.
Target: T1, FITC-IFN-α2b (Homo sapiens, UniProt P01563)
T1 construct: single non-glycosylated polypeptide chain with a molecular weight of 19 kDa, comprising 165 amino acids; purchased Millipore Sigma-Aldrich SRP4595-100UG; host or cells: E. coli
Test: MST binding to FITC-IFN-α2b
Method: Typically, in the labeling process, one amine per protein is labeled, statistically distributing the position of the dye. Consequently, the risk of the label impairing the binding is minimal, given the typical number of lysine residues in proteins. […] The MST assay was performed as detailed in Section 3. […] For IFN- α 2b a concentration of 2.7 μ M was also prepared to compare it with previous results on MST-binding between FILs and IFN- α 2b fluorescently labeled with a different tag. In each run of MST, a maximum concentration of a ligand is selected and consecutively diluted in sixteen capillaries. […] The experimental conditions of the MST assay only allow the study of the aggregation phenomenon individually for the first CAC. For the MST runs with the concentration of the first capillary above the second CAC, the determined K d values for the runs that yield binding are influenced by several aggregates, making it impossible to attribute the K d value to a specific CAC. However, K d comprises the influence of the distinct aggregates of the FIL on binding affinity with both proteins, allowing a qualitative analysis of the impact of the different aggregates on binding affinity.
Microscale thermophoresis (MST) measurements of the dye-labeled protein were used to conduct binding investigations. […] MST tests were conducted in a monolith NT.115 (blue/red) in accordance with the NanoTemper Technologies methodology. Medium MST power and 20% LED power (nano-blue) were set as the instrument’s default settings. For every MST measurement, a PBS buffer was used. The concentration of FITC-BSA was fixed at 0.4 μ M and FITC-IFN- α 2b was tested under two different concentrations (of 0.4 and 2.7 μ M). The ligand was used to create a set of 16 1:1 dilutions, with the starting ligand concentrations ranging from 10 to 400 mM. The typical parameters for MST traces were used for recording: […], 30 s MST power on, and 5 s MST power off. The data from three independently conducted pipetted experiments were examined using NanoTemper Technologies’ MO.Affinity Analysis software, version 2.3.

T1 sequence (P01563 24-188): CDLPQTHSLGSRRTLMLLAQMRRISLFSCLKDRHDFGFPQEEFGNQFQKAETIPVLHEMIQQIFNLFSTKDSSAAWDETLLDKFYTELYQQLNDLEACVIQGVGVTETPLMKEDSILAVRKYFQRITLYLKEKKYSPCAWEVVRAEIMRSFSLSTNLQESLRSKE

CCn1cc[n+](C)c1.O=S(=O)([O-])C(F)(F)C(F)(F)C(F)(F)C(F)(F)F [1-ethyl-3-methylimidazolium perfluorobutane sulfonate]
Kd (0.41 μM IFN-α2b, max. conc. first capillary below 1st CAC (monomer)): no binding detected
Kd (0.41 μM IFN-α2b, max. conc. first capillary in 2nd CAC range, 25 °C, read-out: Kd): 0.71 ± 0.37 mM
Kd (0.41 μM IFN-α2b, max. conc. first capillary in 4th CAC range, 25 °C, read-out: Kd): 6.28 ± 1.09 mM
Kd (2.7 μM IFN-α2b, max. conc. first capillary in 1st CAC range, 25 °C, read-out: Kd): 9.1 ± 6.38 mM
Kd (2.7 μM IFN-α2b, max. conc. first capillary in 3rd CAC range, 25 °C, read-out: Kd): 29.9 ± 6.27 mM

Source: publication PMC10931833, “Simultaneous Purification of Human Interferon Alpha-2b and Serum Albumin Using Bioprivileged Fluorinated Ionic Liquid-Based Aqueous Biphasic Systems” (International Journal of Molecular Sciences, 2024)
